Assay results as given in US20260285850A1, “SUBSTITUTED OXAZOLIDINONES AND IMIDAZOLINONES AS HERBICIDES” (FMC CORPORATION, priority 2023, published 2026).

Experiments:
Type in all cases: in vivo
[1] = tested on: green foxtail (Setaria viridis); test: Test A preemergence soil spray, visual injury rating 0-100; conditions: 10 days, 0 = no effect, 100 = complete control
In short: (§1)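 Compound in a non-phytotoxic, surfactant-containing solvent is applied either as a directed soil spray before seedlings emerge or onto emerged plants 2-10 cm tall; pots hold a loam-sand blend. Plants grow 10 days under greenhouse conditions and are rated by eye against untreated controls (0 no effect, 100 complete control).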

[2] = tested on: ryegrass, Italian (italian ryegrass, Lolium multiflorum); test: as above; conditions: 10 days, 0 = no effect, 100 = complete control
In short: as §1

[3] = tested on: barnyardgrass (Echinochloa crus-galli); test: as above; conditions: 10 days, 0 = no effect, 100 = complete control
In short: as §1

corn (Zea mays) [4] = test: as above; conditions: 10 days, 0 = no effect, 100 = complete control
In short: as §1

[5] = tested on: ragweed (common ragweed, Ambrosia artemisiifolia); test: as above; conditions: 10 days, 0 = no effect, 100 = complete control
In short: as §1

soybean (Glycine max) [6] = test: as above; conditions: 10 days, 0 = no effect, 100 = complete control
In short: as §1

kochia (Bassia scoparia) [7] = test: as above; conditions: 10 days, 0 = no effect, 100 = complete control
In short: as §1

[8] = tested on: palmer (palmer amaranth, palmer pigweed, Amaranthus palmeri); test: as above; conditions: 10 days, 0 = no effect, 100 = complete control
In short: as §1

[9] = tested on: blackgrass (Alopecurus myosuroides); test: as above; conditions: 10 days, 0 = no effect, 100 = complete control
In short: as §1

[10] = tested on: oat, wild (wild oat, Avena fatua); test: as above; conditions: 10 days, 0 = no effect, 100 = complete control
In short: as §1

[11] = tested on: wheat (Triticum aestivum); test: as above; conditions: 10 days, 0 = no effect, 100 = complete control
In short: as §1

[12] = tested on: barnyardgrass (Echinochloa crusgalli); test: Test B flooded paddy test, visual plant response rating 0-100; conditions: 250 g ai/ha, Flood, applied to paddy water, evaluated after 13 days
In short: (§2)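 Visual evaluation after 13 days. Water-applied treatment, 3 cm flood depth held constant, plants at 2-leaf stage at treatment.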

[13] = tested on: sedge, umbrella (small-flower umbrella sedge, Cyperus difformis); test: as above; conditions: 250 g ai/ha, Flood, applied to paddy water, evaluated after 13 days
In short: as §2

[14] = tested on: ducksalad (Heteranthera limosa); test: as above; conditions: 250 g ai/ha, Flood, applied to paddy water, evaluated after 13 days
In short: as §2

rice (Oryza sativa) = test: as above; conditions: 250 g ai/ha, Flood, applied to paddy water, evaluated after 13 days
In short: as §2

[15] = tested on: green foxtail (Setaria viridis); test: Test A postemergence application, visual injury rating 0-100; conditions: 10 days
In short: as §1

[16] = tested on: ryegrass, Italian (italian ryegrass, Lolium multiflorum); test: as above; conditions: 10 days
In short: as §1

[17] = tested on: barnyardgrass (Echinochloa crus-galli); test: as above; conditions: 10 days
In short: as §1

corn (Zea mays) [18] = test: as above; conditions: 10 days
In short: as §1

[19] = tested on: ragweed (common ragweed, Ambrosia artemisiifolia); test: as above; conditions: 10 days
In short: as §1

soybean (Glycine max) [20] = test: as above; conditions: 10 days
In short: as §1

kochia (Bassia scoparia) [21] = test: as above; conditions: 10 days
In short: as §1

[22] = tested on: horseweed (Erigeron canadensis); test: as above; conditions: 10 days
In short: as §1

[23] = tested on: palmer (palmer amaranth, palmer pigweed, Amaranthus palmeri); test: as above; conditions: 10 days
In short: as §1

[24] = tested on: blackgrass (Alopecurus myosuroides); test: as above; conditions: 10 days
In short: as §1

[25] = tested on: oat, wild (wild oat, Avena fatua); test: as above; conditions: 10 days
In short: as §1

[26] = tested on: wheat (Triticum aestivum); test: as above; conditions: 10 days
In short: as §1

[27] = tested on: galium (catchweed bedstraw, Galium aparine); test: as above; conditions: 10 days
In short: as §1

[28] = 31 g ai/ha, postemergence, 0 = no effect, 100 = complete control
[29] = Postemergence, 125 g ai/ha, 0 is no effect, 100 is complete control

With `COC(=O)C1CC(NC(=O)C2(C)CN(c3cc(F)cc(F)c3)C(=O)O2)CO1` (stereo not shown) [Compound 29] the “Foxtail, Green plant response rating (0-100)” value ([1]; 31 g ai/ha) was 0, the “Foxtail, Green plant response rating (0 to 100 scale)” value ([1]; 125 g ai/ha) was 0 and the “Ryegrass, Italian plant response rating (0-100)” value ([2]; 31 g ai/ha) was 0. For the same compound, the “Ryegrass, Italian plant response rating (0 to 100 scale)” value ([2]; 125 g ai/ha) was 30, the “Barnyardgrass plant response rating (0-100)” value ([3]; 31 g ai/ha) was 0 and the “Barnyardgrass plant response rating (0 to 100 scale)” value ([3]; 125 g ai/ha) was 20. For the same compound, the “Corn plant response rating (0-100)” value (corn (Zea mays) [4]; 31 g ai/ha) was 0, the “Corn plant response rating (0 to 100 scale)” value (corn (Zea mays) [4]; 125 g ai/ha) was 0 and the “Ragweed plant response rating (0-100)” value ([5]; 31 g ai/ha) was 0. The “Ragweed plant response rating (0 to 100 scale)” value ([5]; 125 g ai/ha) was 0, the “Soybean plant response rating (0-100)” value (soybean (Glycine max) [6]; 31 g ai/ha) was 0 and the “Soybean plant response rating (0 to 100 scale)” value (soybean (Glycine max) [6]; 125 g ai/ha) was 0. The “Kochia plant response rating (0-100)” value (kochia (Bassia scoparia) [7]; 31 g ai/ha) was 0, the “Kochia plant response rating (0 to 100 scale)” value (kochia (Bassia scoparia) [7]; 125 g ai/ha) was 0 and the “Amaranth, Palmer plant response rating (0-100)” value ([8]; 31 g ai/ha) was 0. For the same compound, the “Amaranth, Palmer plant response rating (0 to 100 scale)” value ([8]; 125 g ai/ha) was 0, the “Blackgrass plant response rating (0-100)” value ([9]; 31 g ai/ha) was 0 and the “Blackgrass plant response rating (0 to 100 scale)” value ([9]; 125 g ai/ha) was 50. The “Oat, Wild plant response rating (0-100)” value ([10]; 31 g ai/ha) was 0, the “Oat, Wild plant response rating (0 to 100 scale)” value ([10]; 125 g ai/ha) was 60 and the “Wheat plant response rating (0-100)” value ([11]; 31 g ai/ha) was 0. For the same compound, the “Wheat plant response rating (0 to 100 scale)” value ([11]; 125 g ai/ha) was 80, the “Plant response rating, Barnyardgrass (0 to 100 scale, 0 is no effect and 100 is complete control)” value [12] was 0 and the “Plant response rating, Sedge, Umbrella (0 to 100 scale, 0 is no effect and 100 is complete control)” value [13] was 0. For the same compound, the “Plant response rating, Ducksalad (0 to 100 scale, 0 is no effect and 100 is complete control)” value [14] was 0, the “Plant response rating, Rice (0 to 100 scale, 0 is no effect and 100 is complete control)” value (rice (Oryza sativa)) was 0 and the “Foxtail, Green plant response rating (0-100)” value [15, 28] was 0. For the same compound, the “Foxtail, Green plant response rating (0 to 100 scale)” value [15, 29] was 80, the “Ryegrass, Italian plant response rating (0-100)” value [16, 28] was 50 and the “Ryegrass, Italian plant response rating (0 to 100 scale)” value [16, 29] was 90. The “Barnyardgrass plant response rating (0-100)” value [17, 28] was 10, the “Barnyardgrass plant response rating (0 to 100 scale)” value [17, 29] was 80 and the “Corn plant response rating (0-100)” value (corn (Zea mays) [18]; [28]) was 0. For the same compound, the “Corn plant response rating (0 to 100 scale)” value (corn (Zea mays) [18]; [29]) was 70, the “Ragweed plant response rating (0-100)” value [19, 28] was 30 and the “Ragweed plant response rating (0 to 100 scale)” value [19, 29] was 30. For the same compound, the “Soybean plant response rating (0-100)” value (soybean (Glycine max) [20]; [28]) was 0, the “Soybean plant response rating (0 to 100 scale)” value (soybean (Glycine max) [20]; [29]) was 50 and the “Kochia plant response rating (0-100)” value (kochia (Bassia scoparia) [21]; [28]) was 20. For the same compound, the “Kochia plant response rating (0 to 100 scale)” value (kochia (Bassia scoparia) [21]; [29]) was 40, the “Horseweed plant response rating (0-100)” value [22, 28] was 0 and the “Horseweed plant response rating (0 to 100 scale)” value [22, 29] was 20. The “Amaranth, Palmer plant response rating (0-100)” value [23, 28] was 0, the “Amaranth, Palmer / Pigweed, Palmer plant response rating (0 to 100 scale)” value [23, 29] was 60 and the “Blackgrass plant response rating (0-100)” value [24, 28] was 90. The “Blackgrass plant response rating (0 to 100 scale)” value [24, 29] was 90, the “Oat, Wild plant response rating (0-100)” value [25, 28] was 80 and the “Oat, Wild plant response rating (0 to 100 scale)” value [25, 29] was 90. The “Wheat plant response rating (0-100)” value [26, 28] was 80, the “Wheat plant response rating (0 to 100 scale)” value [26, 29] was 90 and the “Galium plant response rating (0-100)” value [27, 28] was 50. The “Galium plant response rating (0 to 100 scale)” value [27, 29] was 80.
